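Method: 48-hour compound exposure of cells in 96-well plates, five concentrations, linear interpolation of endpoints. GI50 marks 50% less growth.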 Active and inactive are the calls of the source. Rule as the data show it: active = GI50 up to about 1.1 µM and inactive = higher.
Tests used:
Experiment in all cases: NCI tumour cell line growth inhibition, 48 h
MDA-MB-231 = tested on: MDA-MB-231
PC-3 = tested on: PC-3
NCI-H23 = tested on: NCI-H23
NCI/ADR-RES = tested on: NCI/ADR-RES
U-251 = tested on: U-251
SNB-19 = tested on: SNB-19
MDA-N = tested on: MDA-N
LOX IMVI = tested on: LOX IMVI
SW-620 = tested on: SW-620
Malme-3M = tested on: Malme-3M
CCRF-CEM = tested on: CCRF-CEM
UACC-257 = tested on: UACC-257
T47D = tested on: T47D
NCI-H460 = tested on: NCI-H460
NCI-H226 = tested on: NCI-H226

Measured: GI50

CC(C)=CC(O)C(C(O)CCC1(C)OCCO1)S(=O)(=O)c1ccccc1 (stereo not drawn)
inactive: MDA-MB-231 > 100 µM | PC-3 > 100 µM | NCI-H23 > 100 µM | NCI/ADR-RES > 100 µM | U-251 > 100 µM | SNB-19 > 100 µM | MDA-N > 100 µM | LOX IMVI > 100 µM | SW-620 > 100 µM | Malme-3M > 100 µM | CCRF-CEM > 100 µM | UACC-257 > 100 µM | T47D > 100 µM | NCI-H460 > 100 µM | NCI-H226 > 100 µM

OCC1COc2cc(Cl)c(Cl)cc2O1 (stereo not drawn)
inactive: MDA-MB-231 > 10 µM | PC-3 > 10 µM | NCI-H23 > 10 µM | NCI/ADR-RES > 10 µM | U-251 > 10 µM | SNB-19 > 10 µM | MDA-N > 10 µM | LOX IMVI > 10 µM | SW-620 > 10 µM | Malme-3M > 10 µM | CCRF-CEM > 10 µM | T47D > 10 µM | NCI-H460 > 10 µM | NCI-H226 6.3 µM

CC(C)C(=O)Nc1cc(C(F)(F)F)ccc1[N+](=O)[O-]
inactive: MDA-MB-231 > 100 µM | PC-3 > 100 µM | NCI-H23 > 100 µM | NCI/ADR-RES > 100 µM | U-251 > 100 µM | SNB-19 > 100 µM | MDA-N > 100 µM | LOX IMVI > 100 µM | SW-620 > 100 µM | Malme-3M 68.5 µM | CCRF-CEM > 100 µM | UACC-257 > 100 µM | T47D 81.5 µM | NCI-H460 72.6 µM | NCI-H226 > 100 µM

CC(C)(C)OC(=O)NC(CSSCC(NC(=O)OC(C)(C)C)C(=O)O)C(=O)O (stereo not drawn)
inactive: MDA-MB-231 > 100 µM | PC-3 > 100 µM | NCI-H23 > 100 µM | NCI/ADR-RES > 100 µM | U-251 > 100 µM | SNB-19 > 100 µM | MDA-N > 100 µM | LOX IMVI > 100 µM | SW-620 > 100 µM | Malme-3M > 100 µM | CCRF-CEM > 100 µM | UACC-257 > 100 µM | T47D > 100 µM | NCI-H460 > 100 µM | NCI-H226 > 100 µM

Cc1cc(C)c(S(=O)(=O)N(CCCCCCN)OCCCN)c(C)c1
inactive: MDA-MB-231 10.7 µM | PC-3 14.6 µM | NCI-H23 17.1 µM | NCI/ADR-RES 24.3 µM | U-251 16.2 µM | SNB-19 19.3 µM | MDA-N 17.5 µM | LOX IMVI 12.2 µM | SW-620 17.9 µM | Malme-3M 10.3 µM | CCRF-CEM 16.1 µM | UACC-257 15.8 µM | T47D 17.7 µM | NCI-H460 15.6 µM | NCI-H226 19.6 µM

N#CC(=S)Nc1ccc(F)cc1
inactive: MDA-MB-231 > 100 µM | PC-3 57.7 µM | NCI-H23 53.7 µM | NCI/ADR-RES 34.2 µM | U-251 34.4 µM | SNB-19 > 100 µM | MDA-N 52.1 µM | LOX IMVI 30.8 µM | SW-620 60.8 µM | Malme-3M 50.2 µM | CCRF-CEM 22.4 µM | UACC-257 30.6 µM | T47D 24 µM | NCI-H460 55.3 µM | NCI-H226 78.5 µM

CCOC(=O)C(NC(=O)c1cccc(Cl)c1)(Nc1ccc(S(=O)(=O)Nc2cc(C)on2)cc1)C(F)(F)F (stereo not drawn)
inactive: MDA-MB-231 > 100 µM | PC-3 > 100 µM | NCI-H23 > 100 µM | NCI/ADR-RES > 100 µM | U-251 > 100 µM | SNB-19 > 100 µM | MDA-N > 100 µM | LOX IMVI > 100 µM | SW-620 > 100 µM | Malme-3M > 100 µM | CCRF-CEM > 100 µM | UACC-257 > 100 µM | T47D > 100 µM | NCI-H460 > 100 µM | NCI-H226 > 100 µM

Cc1c(N2C(=O)/C(=C/c3ccc(Cl)cc3)N=C2c2ccccc2)c(=O)n(-c2ccccc2)n1C
inactive: MDA-MB-231 33.8 µM | PC-3 33.9 µM | NCI-H23 26.2 µM | NCI/ADR-RES 44.5 µM | U-251 28.2 µM | MDA-N 24.8 µM | LOX IMVI 16.7 µM | SW-620 31.9 µM | Malme-3M 31.5 µM | CCRF-CEM 28.3 µM | UACC-257 18.3 µM | T47D 29.6 µM | NCI-H460 31 µM | NCI-H226 30.7 µM

CCCCCCCCCCCCOCCOCCOCCOCCOCCOCC(=O)NC(Cc1ccccc1)C(=O)Oc1ccc([N+](=O)[O-])cc1 (stereo not drawn)
inactive: MDA-MB-231 60.3 µM | PC-3 31 µM | NCI-H23 32.3 µM | NCI/ADR-RES 37.5 µM | U-251 34.2 µM | SNB-19 47.3 µM | MDA-N 27.7 µM | LOX IMVI 29.8 µM | SW-620 36.2 µM | Malme-3M 29.6 µM | CCRF-CEM 31.7 µM | UACC-257 29.9 µM | T47D 40 µM | NCI-H460 30.5 µM | NCI-H226 59 µM
